In the NIST ThermoML archive (doi:10.1021/je301123j):

Experiment: xn = mol fraction of the nth substance listed
Conditions: for surface tension liquid-gas: Ring tensiometer; for mass density / speed of sound / viscosity: 100 kPa, Liquid

CCN1CCCC1=O [1-ethyl-2-pyrrolidinone] + OCCNCCO
Conditions	mass density [kg/m3]	speed of sound [m/s]	surface tension liquid-gas [mN/m]	viscosity [mPa·s]
293.15 K, x1 = 0.1	1084.34	1700.4	44.5	462.69
293.15 K, x1 = 0.2005	1072.76	1666.7	42.8	227.23
293.15 K, x1 = 0.3001	1061.83	1638.2	41.2	109.6
293.15 K, x1 = 0.4002	1051.18	1611.7	40.1	51.6
293.15 K, x1 = 0.4999	1040.9	1589.2	39.2	26.02
293.15 K, x1 = 0.6	1031.22	1569.3	38.1	13.84
293.15 K, x1 = 0.7001	1022.09	1552.5	37.8	8.154
293.15 K, x1 = 0.8001	1013.33	1538.4	37.2	4.999
293.15 K, x1 = 0.8995	1005.23	1524.5	36.5	3.117
293.15 K, x1 = 1	997.91	1513.2	36.5	2.132
303.15 K, x1 = 0.1	1077.54	1672.2	43.6	211.41
303.15 K, x1 = 0.2005	1065.85	1637.9	41.3	110.73
303.15 K, x1 = 0.3001	1054.58	1607.8	40.1	55.57
303.15 K, x1 = 0.4002	1043.68	1581	39.1	29.59
303.15 K, x1 = 0.4999	1033.22	1557.4	38.4	16.21
303.15 K, x1 = 0.6	1023.25	1536.3	37.1	9.351
303.15 K, x1 = 0.7001	1013.95	1518.1	36.7	5.87
303.15 K, x1 = 0.8001	1005.2	1503.6	36.2	3.826
303.15 K, x1 = 0.8995	996.81	1487.8	35.3	2.496
303.15 K, x1 = 1	989.34	1475	35.2	1.777
313.15 K, x1 = 0.1	1070.86	1645.8	42	108.68
313.15 K, x1 = 0.2005	1058.79	1610.1	40.4	57.66
313.15 K, x1 = 0.3001	1047.53	1578.7	38.8	32.13
313.15 K, x1 = 0.4002	1036.08	1550.5	38.3	18.38
313.15 K, x1 = 0.4999	1025.43	1526.2	37	10.8
313.15 K, x1 = 0.6	1015.25	1503.7	36.3	6.732
313.15 K, x1 = 0.7001	1005.78	1484.4	35.9	4.419
313.15 K, x1 = 0.8001	996.9	1469.1	34.8	3.014
313.15 K, x1 = 0.8995	988.38	1451.6	34.4	2.058
313.15 K, x1 = 1	980.76	1437.6	34.2	1.515
323.15 K, x1 = 0.1	1064.04	1619.5	–	57.82
323.15 K, x1 = 0.2005	1051.64	1582.5	–	33.78
323.15 K, x1 = 0.3001	1039.8	1550	–	20.16
323.15 K, x1 = 0.4002	1028.42	1519.9	–	12.28
323.15 K, x1 = 0.4999	1017.57	1495.1	–	7.624
323.15 K, x1 = 0.6	1007.21	1471	–	5.011
323.15 K, x1 = 0.7001	997.61	1450.7	–	3.439
323.15 K, x1 = 0.8001	988.58	1434.7	–	2.429
323.15 K, x1 = 0.8995	979.92	1415.6	–	1.734
323.15 K, x1 = 1	972.16	1400.6	–	1.31
